Test results reported in ChEMBL document CHEMBL1151711, “Studies on quinones. Part 44: Novel angucyclinone N-heterocyclic analogues endowed with antitumoral activity” (Bioorg Med Chem, 2008).

Key:
[1] = tested on: MRC5; assay: Cytotoxicity against human MRC5 cells after 3 days by MTT assay; assay type: cell-based; settings: MRC5, 72 h
[2] = tested on: AGS; assay: Cytotoxicity against human AGS cells after 3 days by MTT assay; assay type: functional, cell-based; settings: 72 h
[3] = tested on: J82; assay: Cytotoxicity against human J82 cells after 3 days by MTT assay; assay type: functional, cell-based; settings: J82, 72 h
[4] = tested on: HL-60; assay: Cytotoxicity against human HL-60 cells after 3 days by MTT assay; assay type: functional, cell-based; settings: HL-60, 72 h
[5] = tested on: SK-MES-1; assay: Cytotoxicity against human SK-MES-1 cells after 3 days by MTT assay; assay type: functional, cell-based; settings: SK-MES-1, 72 h

| Compound | IC50 [1] [µM] | IC50 [2] [µM] | IC50 [3] [µM] | IC50 [4] [µM] | IC50 [5] [µM] |
| --- | --- | --- | --- | --- | --- |
| Cn1c(=O)c2c3c(cnc2n(C)c1=O)C(=O)C=CC3=O | 72.8 | 82.1 | 78.6 | 31.5 | 67.5 |
| Cc1nc2c(c3c1C(=O)c1ccccc1C3=O)C(=O)CCC2 | 21.5 | 9.5 | 7.7 | 45.2 | 11.9 |
| O=C1c2ccccc2C(=O)c2c1cnc1c2C(=O)CCC1 | 41.3 | 19 | 62.6 | 73.2 | 51.6 |
| O=C1c2c(O)cccc2C(=O)c2c3c(cc(O)c21)CCCC3 | > 100 | 41.6 | 69.9 | > 100 | 73.7 |
| Cc1nc2c(c3c1C(=O)C=CC3=O)C(=O)CCC2 | 20.5 | 22 | 5.6 | 46.5 | 3.5 |
| O=C1c2cnc3c(c2C(=O)c2cccc(O)c21)C(=O)CCC3 | 11.3 | 1.6 | 9.2 | 5.6 | 3.7 |
| CC1(C)CC(=O)c2c(ncc3c2C(=O)C=CC3=O)C1 | 39.9 | 75.2 | 95.3 | 43.6 | > 100 |
| Cn1c(=O)c2c3c(cnc2n(C)c1=O)C(=O)c1c(O)cccc1C3=O | 6.8 | 5.9 | 9.2 | 15.9 | 8.1 |
| Cc1nc2c(c3c1C(=O)c1c(O)cccc1C3=O)c(=O)n(C)c(=O)n2C | > 100 | 70 | > 100 | > 100 | > 100 |
| Cc1nc2c(c3c1C(=O)C=CC3=O)c(=O)n(C)c(=O)n2C | 67.1 | 50.3 | 72.4 | 26.3 | 70.2 |
| Cn1c(=O)c2c3c(cnc2n(C)c1=O)C(=O)c1ccccc1C3=O | 12.6 | 3.5 | 8.7 | 20.4 | 8.9 |
| Cc1nc2c(c3c1C(=O)c1ccccc1C3=O)c(=O)n(C)c(=O)n2C | > 100 | 19.1 | 24.9 | > 100 | 5.2 |
| CC1(C)CC(=O)c2c(ncc3c2C(=O)c2cccc(O)c2C3=O)C1 | 6.5 | 11.6 | 3.9 | 2.3 | 3.6 |
| Cc1nc2c(c3c1C(=O)c1c(O)cccc1C3=O)C(=O)CC(C)(C)C2 | 5.5 | 7.4 | 15.7 | 11.8 | 4.6 |
| O=C1c2cnc3c(c2C(=O)c2cccc(O)c21)CCCC3 | 63.6 | 36.8 | 20.5 | 45.8 | 36.8 |
| Cc1nc2c(c3c1C(=O)c1c(O)cccc1C3=O)C(=O)CCC2 | 17.3 | 4.5 | 17.5 | 23.9 | 10.2 |
| Cc1nc2c(c3c1C(=O)c1ccccc1C3=O)C(=O)CC(C)(C)C2 | 15.9 | 4.5 | 18.9 | 17.5 | 13.5 |
| Cc1cnc2c(c1)C(=O)c1c(cnc3c1C(=O)CCC3)C2=O | 0.73 | 1.2 | 1.8 | 2.4 | 1.7 |
| O=C1C=CC(=O)c2c1cnc1c2C(=O)CCC1 | 20.2 | 19.4 | 38.8 | 15.8 | 25.7 |
